# Experimental data as given in patent US20230157289A1, “HERBICIDAL PHENYLURACILS” (BASF-SE, priority 2020, published 2023).
# Where two headings read alike, the source gives them in different places.
# Key:
# Format in all cases: in vivo
# Setaria viridis = assay: greenhouse post-emergence herbicidal test, SETVI
# Description: (§1) The culture containers used were plastic flowerpots containing loamy sand with approximately 3.0% of humus as the substrate. The seeds of the test plants were sown separately for each species.
# (§2) For the pre-emergence treatment, the active ingredients, which had been suspended or emulsified in water, were applied directly after sowing by means of finely distributing nozzles. The containers were irrigated gently to promote germination and growth and subsequently covered with transparent plastic hoods until the test plants had rooted. This cover caused uniform germination of the test plants, unless this had been impaired by the active ingredients. For the post-emergence treatment, the test plants were first grown to a height of 3 to 15 cm, depending on the plant habit, and only then treated with the active ingredients which had been suspended or emulsified in water. For this purpose, the test plants were either sown directly and grown in the same containers, or they were first grown separately as seedlings and transplanted into the test containers a few days prior to treatment.
# (§3) Depending on the species, the test plants were kept at 10 - 25° C. or 20 - 35° C., respectively. The test period extended over 2 to 4 weeks. During this time, the test plants were tended, and their response to the individual treatments was evaluated.
# (§4) Evaluation was carried out using a scale from 0 to 100. 100 means no emergence of the test plants, or complete destruction of at least the aerial moieties, and 0 means no damage, or normal course of growth. A good herbicidal activity is given at values of at least 70 and a very good herbicidal activity is given at values of at least 85.
# Chenopodium album = assay: greenhouse post-emergence herbicidal test, CHEAL
# Description: as §1, §2, §3, §4
# Echinocloa crus-galli = assay: greenhouse post-emergence herbicidal test, ECHCG; conditions: scale from 0 to 100
# Description: as §1, §2, §3, §4
# Alopecurus myosuroides = assay: greenhouse post-emergence herbicidal test, ALOMY; conditions: scale from 0 to 100
# Description: as §1, §2, §3, §4
# Lolium multiflorum = assay: greenhouse post-emergence herbicidal test, LOLMU; conditions: scale from 0 to 100
# Description: as §1, §2, §3, §4
# Avena fatua = assay: greenhouse post-emergence herbicidal test, AVEFA; conditions: application rate 2 g/ha, scale from 0 to 100
# Description: as §1, §2, §3, §4
# Amaranthus retroflexus = assay: greenhouse post-emergence herbicidal test, AMARE
# Description: as §1, §2, §3, §4
# [1] = application rate 16 g/ha, SETVI, scale from 0 to 100, read-out: herbicidal activity
# [2] = application rate 16 g/ha, CHEAL, scale from 0 to 100, read-out: herbicidal activity
# [3] = application rate 16 g/ha, AMARE, scale from 0 to 100, read-out: herbicidal activity
smiles,measurement,setting,value
"COC(=O)C(OC)Oc1ccccc1Oc1cc(-n2c(=O)cc(C(F)(F)F)n(C)c2=O)c(F)cc1Br (centres unmarked) [example 1, Methyl 2-[2-[2-bromo-4-fluoro-5-[3-methyl-2,6-dioxo-4-(trifluoromethyl)pyrimidin-1-yl]phenoxy]phenoxy]-2-methoxy-acetate]",pest or weed control at 16 g/ha,Setaria viridis; read-out: herbicidal activity,> 85%
same,pest or weed control at 16 g/ha,Chenopodium album; read-out: herbicidal activity,> 85%
same,damages,Echinocloa crus-galli; application rate 1 g/ha,90
same,damages,Echinocloa crus-galli; application rate 2 g/ha,98
same,damages,Alopecurus myosuroides; application rate 4 g/ha,95
same,damages,Alopecurus myosuroides; application rate 8 g/ha,95
same,damages,Lolium multiflorum; application rate 4 g/ha,75
same,damages,Lolium multiflorum; application rate 8 g/ha,85
same,damages,Avena fatua,85
same,pest or weed control at 16 g/ha,Amaranthus retroflexus; read-out: herbicidal activity,> 85%
"C=CCOC(=O)C(OC)Oc1ccccc1Oc1cc(-n2c(=O)cc(C(F)(F)F)n(C)c2=O)c(F)cc1Br (racemic) [example 4, allyl rac-2-[2-[2-bromo-4-fluoro-5-[3-methyl-2,6-dioxo-4-(trifluoromethyl)pyrimidin-1-yl]phenoxy]phenoxy]-2-methoxy-acetate]",pest or weed control at 16 g/ha,Setaria viridis; [1],> 85%
same,pest or weed control at 16 g/ha,Chenopodium album; [2],> 85%
same,pest or weed control at 16 g/ha,Amaranthus retroflexus; [3],> 85%
COC(=O)C(OC)Oc1ccccc1Oc1nc(-n2c(=O)cc(C(F)(F)F)n(C)c2=O)c(F)cc1Br (centres unmarked) [cmpd I.a.646 (WO 17/202768)],damages,Echinocloa crus-galli; application rate 1 g/ha,25
same,damages,Echinocloa crus-galli; application rate 2 g/ha,65
same,damages,Alopecurus myosuroides; application rate 4 g/ha,50
same,damages,Alopecurus myosuroides; application rate 8 g/ha,70
same,damages,Lolium multiflorum; application rate 4 g/ha,60
same,damages,Lolium multiflorum; application rate 8 g/ha,65
same,damages,Avena fatua,40
COC(=O)C(OC)Oc1ccccc1Oc1cc(-n2c(=O)cc(C(F)(F)F)n(C)c2=O)c(F)cc1Cl (centres unmarked) [cmpd 3 (WO 11/137088)],damages,Echinocloa crus-galli; application rate 1 g/ha,45
same,damages,Echinocloa crus-galli; application rate 2 g/ha,90
same,damages,Alopecurus myosuroides; application rate 4 g/ha,75
same,damages,Alopecurus myosuroides; application rate 8 g/ha,80
same,damages,Lolium multiflorum; application rate 4 g/ha,60
same,damages,Lolium multiflorum; application rate 8 g/ha,75
same,damages,Avena fatua,65
"COC(=O)C(OC)Oc1ccccc1Oc1cc(-n2c(=O)c(C)c(C(F)(F)F)n(C)c2=O)c(F)cc1Br (racemic) [example 11, methyl rac-2-[2-[2-bromo-5-[3,5-dimethyl-2,6-dioxo-4-(trifluoromethyl)pyrimidin-1-yl]-4-fluoro-phenoxy]phenoxy]-2-methoxy-acetate]",pest or weed control at 16 g/ha,Setaria viridis; [1],> 85%
same,pest or weed control at 16 g/ha,Chenopodium album; [2],> 85%
same,pest or weed control at 16 g/ha,Amaranthus retroflexus; [3],> 85%
"COC(=O)C(OC)Oc1ncccc1Oc1cc(-n2c(=O)cc(C(F)(F)F)n(C)c2=O)c(F)cc1Br (racemic) [example 12, methyl rac-2-[[3-[2-bromo-4-fluoro-5-[3-methyl-2,6-dioxo-4-(trifluoromethyl)pyrimidin-1-yl]phenoxy]-2-pyridyl]oxy]-2-methoxy-acetate]",pest or weed control at 16 g/ha,Chenopodium album; [2],> 85%
same,pest or weed control at 16 g/ha,Amaranthus retroflexus; [3],> 85%
"COCCOC(=O)C(OC)Oc1ccccc1Oc1cc(-n2c(=O)cc(C(F)(F)F)n(C)c2=O)c(F)cc1Br (racemic) [example 6, 2-methoxyethyl rac-2-[2-[2-bromo-4-fluoro-5-[3-methyl-2,6-dioxo-4-(trifluoromethyl)pyrimidin-1-yl]phenoxy]phenoxy]-2-methoxy-acetate]",pest or weed control at 16 g/ha,Setaria viridis; [1],> 70%
same,pest or weed control at 16 g/ha,Chenopodium album; [2],> 70%
same,pest or weed control at 16 g/ha,Amaranthus retroflexus; [3],> 85%
"C#CCOC(=O)C(OC)Oc1ccccc1Oc1cc(-n2c(=O)cc(C(F)(F)F)n(C)c2=O)c(F)cc1Br (racemic) [example 5, prop-2-ynyl rac-2-[2-[2-bromo-4-fluoro-5-[3-methyl-2,6-dioxo-4-(trifluoromethyl)pyrimidin-1-yl]phenoxy]phenoxy]-2-methoxy-acetate]",pest or weed control at 16 g/ha,Setaria viridis; [1],> 85%
same,pest or weed control at 16 g/ha,Chenopodium album; [2],> 85%
same,pest or weed control at 16 g/ha,Amaranthus retroflexus; [3],> 85%
"COC(=O)C(Oc1ccccc1Oc1cc(-n2c(=O)cc(C(F)(F)F)n(C)c2=O)c(F)cc1Br)SC (racemic) [example 9, methyl rac-2-[2-[2-bromo-4-fluoro-5-[3-methyl-2,6-dioxo-4-(trifluoromethyl)pyrimidin-1-yl]phenoxy]phenoxy]-2-methylsulfanyl-acetate]",pest or weed control at 16 g/ha,Setaria viridis; [1],> 85%
same,pest or weed control at 16 g/ha,Chenopodium album; [2],> 85%
same,pest or weed control at 16 g/ha,Amaranthus retroflexus; [3],> 85%
"CCOC(=O)C(F)Oc1ccccc1Oc1cc(-n2c(=O)cc(C(F)(F)F)n(C)c2=O)c(F)cc1Br (racemic) [example 10, ethyl rac-2-[2-[2-bromo-4-fluoro-5-[3-methyl-2,6-dioxo-4-(trifluoromethyl)pyrimidin-1-yl]phenoxy]phenoxy]-2-fluoro-acetate]",pest or weed control at 16 g/ha,Setaria viridis; [1],> 85%
same,pest or weed control at 16 g/ha,Chenopodium album; [2],> 85%
same,pest or weed control at 16 g/ha,Amaranthus retroflexus; [3],> 85%
"COC(Oc1ccccc1Oc1cc(-n2c(=O)cc(C(F)(F)F)n(C)c2=O)c(F)cc1Br)C(=O)NS(C)(=O)=O (racemic) [example 8, rac-2-[2-[2-bromo-4-fluoro-5-[3-methyl-2,6-dioxo-4-(trifluoromethyl)pyrimidin-1-yl]phenoxy]phenoxy]-2-methoxy-N-methylsulfonyl-acetamide]",pest or weed control at 16 g/ha,Setaria viridis; [1],> 85%
same,pest or weed control at 16 g/ha,Chenopodium album; [2],> 85%
same,pest or weed control at 16 g/ha,Amaranthus retroflexus; [3],> 85%
